Test results as given in ChEMBL document CHEMBL1909046, “DrugMatrix in vitro pharmacology data”.

Key:
[1] = DRUGMATRIX: Glutamate, Kainate radioligand binding (ligand: [3H] Kainic acid); type: cell membranes, Rattus norvegicus, Wistar, Brain, Membrane; conditions: Not Active = under 50% inhibition at 10 µM
[2] = biological target: T1, Leukotriene C4 synthase (Cavia porcellus, UniProt A6XA80); assay: biochemical; type: tissue-based, Lung;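 note: enzyme inhibition assay of leukotriene C4 synthase, using LTA4 as the substrate; in other assays of this panel Not Active means under 50% inhibition at 10 µM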
T1 sequence (A6XA80 whole entry): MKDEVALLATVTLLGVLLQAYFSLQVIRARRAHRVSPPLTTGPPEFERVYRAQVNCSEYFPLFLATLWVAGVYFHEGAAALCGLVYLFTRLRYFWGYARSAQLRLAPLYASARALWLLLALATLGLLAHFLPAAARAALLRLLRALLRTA

[3] = DRUGMATRIX: Purinergic P2X radioligand binding (ligand: [3H] alpha, beta-Methylene-ATP); type: cell membranes, Oryctolagus cuniculus, New Zealand albino, Urinary bladder, Membrane; conditions: Not Active = under 50% inhibition at 10 µM
[4] = biological target: Beta-3 adrenergic receptor (Homo sapiens, UniProt P13945); assay: DRUGMATRIX: Adrenergic beta3 radioligand binding (ligand: [125I] Cyanopindolol); type: cell membranes, HEK293, Membrane; conditions: hek293; Not Active = under 50% inhibition at 10 µM
[5] = biological target: Histamine H2 receptor (Homo sapiens, UniProt P25021); type: cell membranes, CHO-K1, Membrane; conditions: cho-k1; note: in other assays of this panel Not Active means under 50% inhibition at 10 µM
[6] = biological target: C-C chemokine receptor type 2 (Homo sapiens, UniProt P41597); type: cell membranes, CHO-K1, Membrane; conditions: cho-k1; note: in other assays of this panel Not Active means under 50% inhibition at 10 µM
[7] = biological target: Sodium-dependent dopamine transporter (Homo sapiens, UniProt Q01959); assay: DRUGMATRIX: Dopamine Transporter radioligand binding (ligand: [125I] RTI-55); type: cell membranes, CHO-K1, Membrane; conditions: cho-k1; Not Active = under 50% inhibition at 10 µM
[8] = biological target: 5-hydroxytryptamine receptor 4 (Cavia porcellus, UniProt O70528); type: cell membranes, Dunkin-Hartley, Striatum, Membrane; note: in other assays of this panel Not Active means under 50% inhibition at 10 µM
[9] = DRUGMATRIX: Phosphodiesterase PDE3 enzyme inhibition (substrate: [3H]cAMP + cAMP); type: tissue-based, Homo sapiens; conditions: platelet; Not Active = under 50% inhibition at 10 µM
[10] = biological target: T2, Substance-K receptor (Homo sapiens, UniProt P21452); type: cell membranes, CHO, Membrane; conditions: cho; note: in other assays of this panel Not Active means under 50% inhibition at 10 µM
T2 sequence (P21452 whole entry): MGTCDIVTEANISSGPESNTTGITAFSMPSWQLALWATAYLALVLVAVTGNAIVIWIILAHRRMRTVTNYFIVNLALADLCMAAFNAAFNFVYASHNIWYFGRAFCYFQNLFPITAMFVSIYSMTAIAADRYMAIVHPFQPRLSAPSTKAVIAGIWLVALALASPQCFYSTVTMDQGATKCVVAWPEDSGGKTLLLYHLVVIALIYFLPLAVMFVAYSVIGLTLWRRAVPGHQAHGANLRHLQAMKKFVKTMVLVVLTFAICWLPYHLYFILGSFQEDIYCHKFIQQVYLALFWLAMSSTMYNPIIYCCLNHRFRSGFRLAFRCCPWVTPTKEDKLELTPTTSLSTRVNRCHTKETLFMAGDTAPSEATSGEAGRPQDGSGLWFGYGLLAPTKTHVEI

[11] = biological target: T3, D(4) dopamine receptor (Homo sapiens, UniProt P21917); assay: DRUGMATRIX: Dopamine D4.2 radioligand binding (ligand: [3H] Spiperone); type: cell membranes, CHO-K1, Membrane; conditions: cho-k1; Not Active = under 50% inhibition at 10 µM
T3 sequence (P21917 whole entry): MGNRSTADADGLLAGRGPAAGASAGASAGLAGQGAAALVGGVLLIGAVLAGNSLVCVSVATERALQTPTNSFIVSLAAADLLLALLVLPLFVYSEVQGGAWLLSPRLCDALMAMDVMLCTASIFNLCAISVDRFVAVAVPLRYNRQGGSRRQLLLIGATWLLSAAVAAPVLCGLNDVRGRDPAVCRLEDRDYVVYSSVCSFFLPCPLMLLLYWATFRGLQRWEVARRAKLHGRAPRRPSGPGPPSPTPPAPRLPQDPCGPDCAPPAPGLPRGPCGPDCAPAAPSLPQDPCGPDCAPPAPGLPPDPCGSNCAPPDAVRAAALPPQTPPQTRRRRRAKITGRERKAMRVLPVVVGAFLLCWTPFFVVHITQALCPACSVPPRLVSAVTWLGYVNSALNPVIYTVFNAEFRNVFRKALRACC

[12] = DRUGMATRIX: Glutamate, NMDA, Phencyclidine radioligand binding (ligand: [3H] TCP); type: cell membranes, Rattus norvegicus, Wistar, Cerebral cortex, Membrane; conditions: Not Active = under 50% inhibition at 10 µM
[13] = biological target: Cytochrome P450 2C19 (Homo sapiens, UniProt P33261); conditions: bti-tn-5b1-4; note: in other assays of this panel Not Active means under 50% inhibition at 10 µM
[14] = biological target: T4, C-C chemokine receptor type 4 (Homo sapiens, UniProt P51679); type: cell membranes, Membrane; conditions: chem-1; note: in other assays of this panel Not Active means under 50% inhibition at 10 µM
T4 sequence (P51679 whole entry): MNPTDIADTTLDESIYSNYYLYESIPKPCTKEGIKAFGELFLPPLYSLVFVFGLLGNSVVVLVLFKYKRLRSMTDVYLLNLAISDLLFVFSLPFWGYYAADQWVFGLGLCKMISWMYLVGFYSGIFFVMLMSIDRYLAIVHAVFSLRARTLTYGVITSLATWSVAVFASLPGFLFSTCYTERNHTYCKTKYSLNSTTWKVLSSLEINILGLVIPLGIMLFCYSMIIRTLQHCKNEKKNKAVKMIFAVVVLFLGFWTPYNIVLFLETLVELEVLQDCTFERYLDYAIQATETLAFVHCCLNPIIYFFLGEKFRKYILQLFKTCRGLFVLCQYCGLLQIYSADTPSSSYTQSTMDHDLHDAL

[15] = biological target: T5, Muscarinic acetylcholine receptor M4 (Homo sapiens, UniProt P08173); type: cell membranes, CHO-K1, Membrane; conditions: cho-k1; note: in other assays of this panel Not Active means under 50% inhibition at 10 µM
T5 sequence (P08173 whole entry): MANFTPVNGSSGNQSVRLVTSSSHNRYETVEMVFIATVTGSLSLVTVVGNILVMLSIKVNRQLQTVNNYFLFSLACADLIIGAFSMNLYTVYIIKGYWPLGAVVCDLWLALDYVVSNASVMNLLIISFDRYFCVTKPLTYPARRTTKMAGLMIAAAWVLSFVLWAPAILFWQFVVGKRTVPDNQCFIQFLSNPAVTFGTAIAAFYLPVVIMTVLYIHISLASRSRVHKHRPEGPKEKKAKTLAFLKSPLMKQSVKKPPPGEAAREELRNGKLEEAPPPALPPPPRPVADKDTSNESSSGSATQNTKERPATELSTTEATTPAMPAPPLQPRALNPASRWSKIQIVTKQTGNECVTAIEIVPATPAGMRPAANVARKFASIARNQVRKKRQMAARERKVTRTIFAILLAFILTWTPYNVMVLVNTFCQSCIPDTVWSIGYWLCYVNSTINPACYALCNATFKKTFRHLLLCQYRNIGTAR

[16] = biological target: Tyrosine-protein kinase Fyn (Homo sapiens, UniProt P06241); assay: biochemical; type: cell-based, Insect cells; conditions: insect cells
[17] = DRUGMATRIX: Sigma2 radioligand binding (ligand: [3H] Ifenprodil); type: cell membranes, Rattus norvegicus, Wistar, Brain, Membrane; conditions: Not Active = under 50% inhibition at 10 µM

Sequence of Beta-3 adrenergic receptor (P13945 whole entry): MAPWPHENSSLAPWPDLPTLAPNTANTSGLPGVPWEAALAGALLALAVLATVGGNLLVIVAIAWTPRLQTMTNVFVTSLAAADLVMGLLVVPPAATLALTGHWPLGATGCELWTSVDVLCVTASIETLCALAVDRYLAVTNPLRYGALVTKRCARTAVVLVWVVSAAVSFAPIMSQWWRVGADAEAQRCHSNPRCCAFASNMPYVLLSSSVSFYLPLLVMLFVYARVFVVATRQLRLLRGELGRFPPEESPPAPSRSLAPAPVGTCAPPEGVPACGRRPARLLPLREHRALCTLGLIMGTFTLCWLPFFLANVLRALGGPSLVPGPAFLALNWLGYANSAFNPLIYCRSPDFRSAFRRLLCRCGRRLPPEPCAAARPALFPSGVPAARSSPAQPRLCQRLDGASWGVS
Sequence of Tyrosine-protein kinase Fyn (P06241 whole entry): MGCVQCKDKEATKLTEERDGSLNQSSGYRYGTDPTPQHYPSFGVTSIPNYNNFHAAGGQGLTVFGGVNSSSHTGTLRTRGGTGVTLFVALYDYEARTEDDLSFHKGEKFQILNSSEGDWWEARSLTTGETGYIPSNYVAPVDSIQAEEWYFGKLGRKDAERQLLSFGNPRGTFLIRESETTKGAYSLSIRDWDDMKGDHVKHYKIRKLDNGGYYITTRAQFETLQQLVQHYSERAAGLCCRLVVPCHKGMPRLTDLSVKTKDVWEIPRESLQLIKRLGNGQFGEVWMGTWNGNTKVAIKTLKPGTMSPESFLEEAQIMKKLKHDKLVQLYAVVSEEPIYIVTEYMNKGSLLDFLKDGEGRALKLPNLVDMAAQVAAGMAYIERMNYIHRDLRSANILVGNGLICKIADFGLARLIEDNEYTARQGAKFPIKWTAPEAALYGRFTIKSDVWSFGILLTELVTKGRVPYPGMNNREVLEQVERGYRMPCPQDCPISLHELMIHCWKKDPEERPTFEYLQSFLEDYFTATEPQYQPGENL
Sequence of Cytochrome P450 2C19 (P33261 whole entry): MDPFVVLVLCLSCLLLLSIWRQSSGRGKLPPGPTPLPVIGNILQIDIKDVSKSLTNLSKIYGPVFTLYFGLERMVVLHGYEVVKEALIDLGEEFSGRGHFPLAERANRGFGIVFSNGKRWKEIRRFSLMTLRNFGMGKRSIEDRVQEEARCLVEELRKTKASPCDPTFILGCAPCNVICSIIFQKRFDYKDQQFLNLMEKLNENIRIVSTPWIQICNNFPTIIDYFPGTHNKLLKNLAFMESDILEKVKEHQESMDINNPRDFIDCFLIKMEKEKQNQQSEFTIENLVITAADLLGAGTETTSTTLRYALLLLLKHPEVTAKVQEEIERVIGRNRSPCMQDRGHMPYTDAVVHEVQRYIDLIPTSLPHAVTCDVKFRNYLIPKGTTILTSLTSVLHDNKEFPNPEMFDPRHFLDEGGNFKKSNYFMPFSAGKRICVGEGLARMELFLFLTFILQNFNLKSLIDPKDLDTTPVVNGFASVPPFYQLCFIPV
Sequence of Sodium-dependent dopamine transporter (Q01959 whole entry): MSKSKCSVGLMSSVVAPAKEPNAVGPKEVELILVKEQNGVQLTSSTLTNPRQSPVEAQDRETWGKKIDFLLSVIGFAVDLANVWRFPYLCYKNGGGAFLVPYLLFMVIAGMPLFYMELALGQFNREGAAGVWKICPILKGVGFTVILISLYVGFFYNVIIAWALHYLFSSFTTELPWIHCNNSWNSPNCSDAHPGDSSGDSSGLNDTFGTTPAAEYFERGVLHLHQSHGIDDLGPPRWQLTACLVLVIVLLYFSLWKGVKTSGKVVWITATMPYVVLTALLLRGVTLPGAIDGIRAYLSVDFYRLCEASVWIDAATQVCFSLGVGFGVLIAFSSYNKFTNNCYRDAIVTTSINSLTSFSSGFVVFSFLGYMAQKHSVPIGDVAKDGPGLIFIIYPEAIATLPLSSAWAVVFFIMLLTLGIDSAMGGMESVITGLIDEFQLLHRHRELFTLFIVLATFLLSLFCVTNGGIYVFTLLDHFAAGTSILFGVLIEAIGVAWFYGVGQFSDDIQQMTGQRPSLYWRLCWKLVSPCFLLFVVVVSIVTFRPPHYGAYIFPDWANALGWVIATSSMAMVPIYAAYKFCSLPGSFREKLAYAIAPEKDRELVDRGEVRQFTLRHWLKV
Sequence of 5-hydroxytryptamine receptor 4 (O70528 whole entry): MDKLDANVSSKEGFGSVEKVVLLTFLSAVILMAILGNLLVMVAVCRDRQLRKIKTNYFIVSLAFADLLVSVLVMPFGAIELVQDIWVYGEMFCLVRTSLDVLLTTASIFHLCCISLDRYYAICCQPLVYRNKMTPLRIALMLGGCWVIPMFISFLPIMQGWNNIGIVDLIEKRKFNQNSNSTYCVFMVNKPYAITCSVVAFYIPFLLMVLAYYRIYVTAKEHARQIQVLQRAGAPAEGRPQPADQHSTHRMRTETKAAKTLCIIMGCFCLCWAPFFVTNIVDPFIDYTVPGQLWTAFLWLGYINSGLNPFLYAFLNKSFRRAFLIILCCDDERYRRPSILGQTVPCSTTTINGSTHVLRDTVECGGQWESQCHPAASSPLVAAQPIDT
Sequence of C-C chemokine receptor type 2 (P41597 whole entry): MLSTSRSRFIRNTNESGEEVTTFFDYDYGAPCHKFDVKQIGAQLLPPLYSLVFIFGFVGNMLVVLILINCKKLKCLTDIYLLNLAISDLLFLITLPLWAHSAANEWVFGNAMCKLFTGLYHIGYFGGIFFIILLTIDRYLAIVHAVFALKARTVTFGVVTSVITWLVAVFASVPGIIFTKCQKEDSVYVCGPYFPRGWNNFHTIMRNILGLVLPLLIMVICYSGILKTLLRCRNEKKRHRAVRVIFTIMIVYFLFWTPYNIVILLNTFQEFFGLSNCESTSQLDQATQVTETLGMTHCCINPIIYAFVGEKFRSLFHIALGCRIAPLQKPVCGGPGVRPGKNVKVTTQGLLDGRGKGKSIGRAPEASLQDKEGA
Sequence of Histamine H2 receptor (P25021 whole entry): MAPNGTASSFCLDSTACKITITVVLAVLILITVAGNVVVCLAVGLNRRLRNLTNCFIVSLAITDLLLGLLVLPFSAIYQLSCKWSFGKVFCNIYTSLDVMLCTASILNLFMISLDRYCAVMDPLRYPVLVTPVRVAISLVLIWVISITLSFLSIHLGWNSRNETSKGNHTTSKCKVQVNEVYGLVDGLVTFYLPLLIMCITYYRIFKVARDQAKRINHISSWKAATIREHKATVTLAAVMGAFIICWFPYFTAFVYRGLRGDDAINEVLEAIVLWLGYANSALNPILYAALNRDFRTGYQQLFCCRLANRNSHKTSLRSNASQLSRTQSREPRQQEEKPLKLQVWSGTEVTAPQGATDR

OXALIPLATIN
Not Active: IC50 [1] | Ki [1] | IC50 [2] | Ki [2] | IC50 [3] | Ki [3] | IC50 [4] | Ki [4] | IC50 [5] | Ki [5] | IC50 [6] | Ki [6] | IC50 [7] | Ki [7] | IC50 [8] | Ki [8] | IC50 [9] | Ki [9] | IC50 [10] | Ki [10] | IC50 [11] | Ki [11] | IC50 [12] | Ki [12] | IC50 [13] | Ki [13] | IC50 [14] | Ki [14] | IC50 [15] | Ki [15] | IC50 [16] | Ki [16] | IC50 [17] | Ki [17]
